Where “and” joins values, the source holds several entries; their conditions need not be identical. Identical values can stand only once.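 In this assay, cells in 96-well plates receive the compound at five concentrations for 48 hours. Endpoints are linearly interpolated between the surrounding concentrations. Here, GI50 denotes the concentration required for 50% inhibition of growth. TGI denotes the concentration required for complete inhibition of growth.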
Assays:
Test in all cases: inhibition of tumour cell growth, NCI panel, 48 h
A549 NSCLC = tested on: A549 NSCLC
CCRF-CEM leukemia = tested on: CCRF-CEM leukemia
EKVX NSCLC = tested on: EKVX NSCLC
HOP-62 NSCLC = tested on: HOP-62 NSCLC
HT29 colon = tested on: HT29 colon
KM12 colon = tested on: KM12 colon
NCI-H460 lung = tested on: NCI-H460 lung
OVCAR-3 ovarian = tested on: OVCAR-3 ovarian
SF-539 CNS = tested on: SF-539 CNS
SK-MEL-28 melanoma = tested on: SK-MEL-28 melanoma

SMILES	TGI (A549 NSCLC) [µM]	TGI (CCRF-CEM leukemia) [µM]	TGI (EKVX NSCLC) [µM]	TGI (HOP-62 NSCLC)	TGI (HT29 colon) [µM]	TGI (KM12 colon) [µM]	TGI (NCI-H460 lung) [µM]	TGI (OVCAR-3 ovarian) [µM]	TGI (SF-539 CNS) [µM]	TGI (SK-MEL-28 melanoma)	GI50 (A549 NSCLC) [µM]	GI50 (CCRF-CEM leukemia) [µM]	GI50 (EKVX NSCLC) [µM]	GI50 (HOP-62 NSCLC)	GI50 (HT29 colon) [µM]	GI50 (KM12 colon)	GI50 (NCI-H460 lung) [µM]	GI50 (OVCAR-3 ovarian) [µM]	GI50 (SF-539 CNS)	GI50 (SK-MEL-28 melanoma) [µM]
Cc1c(CCCl)c(=O)n2c([nH]c3ccccc32)c1C#N	3.53	2.5	3.65	3.21 µM	3.49	3.14	3.96	3.67	2.79	3.72 µM										
CCOc1ccccc1NC(=O)/C=C1\NC(=O)CS1	> 100	> 100	> 100	> 100 µM	> 100	> 100	> 100	> 100	> 100	> 100 µM										
c1ccc2c(c1)[I+]c1ccccc1-2	> 50	> 50	> 50	> 50 µM	> 50	> 50	> 50	> 50	> 50	> 50 µM	> 50	> 50	19.4	28 µM	38.6	> 50 µM	33.9	> 50	40.6 µM	> 50
O=[N+]([O-])c1ccc2[nH]cc(-c3c4ccsc4cc4[nH]c5ccc([N+](=O)[O-])cc5c34)c2c1	5.4	23.3	11.4	9.25 µM	12.5	4.21	4.13	1.44	1.91	6.44 µM	1.12	1.05	1.56	1.13 µM	1.21	0.77 µM	0.922	0.354	0.697 µM	1.38
C[CH2][Sn]1([CH2]C)[O]C(=O)[O][Sn]([CH2]C)([CH2]C)[O]1	> 100	31.8	> 57	> 68.2 µM	> 62.2	> 100	> 100	> 61.8	38.5	25.8 µM	> 65.4	5.39	> 41.8	41.8 µM	25.6	> 61.5 µM	> 60.3	23.5	19.7 µM	13
C=CCNC(=S)N1CC(C)C(=O)Nc2ccccc21 (stereo not drawn)	> 100	> 100	> 100	> 100 µM	> 100	> 100	> 100	> 100	> 100	> 100 µM										
Nc1nc(-c2cccc([N+](=O)[O-])c2)c(Br)c(=O)[nH]1	> 71.4	> 100	> 100	> 100 µM	> 100	> 100	> 100	> 100	> 82	> 100 µM										
O=C1c2cc(Br)ccc2-c2c1c1ccc([N+](=O)[O-])cc1c(=O)n2CCCCl	> 33.9	0.245	> 100	8.28 µM	12.1	> 41.6	5.4	14.5	3.31	> 100 µM	0.114	< 0.01	10.6	0.837 µM	0.309	0.5 µM	< 0.01	1.11	0.182 µM	1.61
CC(=O)Oc1cc(C)ccc1[C@]1(C)CC[C@H](C)/C1=C\Br	17.3	10.1	18.5	22.2 µM	5.06	12	15.2	7.16	5.1	15.6 µM	4.98	2.75	6.67	9.22 µM	2.45	2.92 µM	4.17	2.61	2.32 µM	3.62
COc1cc2c(cc1OCc1ccccc1)N=C[C@@H]1C/C(=C/C(=O)NCCCN3C(=O)c4cccc5cccc(c45)C3=O)CN1C2=O	> 100	> 100	6.17	> 40.3 µM	> 100	6.59	7.15	3.72	1.47	24.8 µM	3.05	0.0548	1.75	0.583 µM	0.825	1.09 µM	0.603	0.273	0.332 µM	1.96
Nc1c(C(=O)c2ccccc2)sc2nc(-c3cccs3)ccc12	4.8	> 100	17.5	17.8 µM	3.3	5.6	2.56	1.05	1.24	> 100 µM	0.492	0.524	0.285	0.276 µM	0.365	0.103 µM	0.283	0.0468	0.25 µM	1.49
NC(=O)c1c[se]c(C2OC(CO)C(O)C2O)n1 (stereo not drawn)	> 100	> 100	> 100	> 100 µM	> 100	> 45	> 100	> 59	> 71.8	> 100 µM										
Cc1nc(N)sc1C(=O)/C=C/c1ccc(/C=C/C(=O)c2sc(NC(=O)CCCCCCCCC(=O)Nc3nc(C)c(C(=O)/C=C/c4ccc(/C=C/C(=O)c5sc(N)nc5C)cc4)s3)nc2C)cc1	> 100	> 100	> 100	> 100 µM	> 100	> 100	> 100	> 100	> 100	> 100 µM										
CC(=O)OCC1OC(n2c(-c3ccccc3)cc(-c3ccco3)c(C#N)c2=O)C(OC(C)=O)C(OC(C)=O)C1OC(C)=O (stereo not drawn)	> 100	> 100	> 100	> 100 µM and 65.4 µM	> 100	> 100	> 100	> 100	> 100	67 µM and > 100 µM				> 100 µM and 22.1 µM		75 µM and 36.5 µM			16.3 µM and 84.6 µM	
COC(=O)c1c(-c2ccccc2)cc2c3cc(-c4ccccc4)c(C(=O)OC)n3c3ccccc3n12	> 100	> 100	> 100	> 100 µM	> 100	> 100	> 100	> 100	> 100	> 100 µM										

Source: PubChem BioAssay (NCI)
